# Laboratory results reported in patent US20070134156A1, “Fatigue evaluation apparatus, fatigue evaluation method, and application thereof” (SOIKEN INC., priority 2004, published 2007).
# Experiment: Four hours of driving-simulator combined fatigue loading after intake of tryptophan; concentration of tryptophan in plasma
# Type: in vivo, human
# Text: Twelve healthy males who were in their twenties served as subjects. Each of the subjects was right-handed, had at least one year of experience as a licensed driver, and drove an ordinary motor vehicle at least once a week. Further, patients with sinus problems, smokers, users of drugs (such as caffeinated or spiced food products and anti-allergic drugs, which affect a central nervous system) were excluded.
# The subject was subjected to driving work loading by using a driving simulator (ACCESS MASTER AM2330 manufactured by Tasknet Inc.).
# In order to study an effect of tryptophan on fatigue, each of the subjects in a tryptophan group who received tryptophan before loading was subjected to four hours of simulator driving without a break, and each of the subjects in a placebo group who received a placebo before loading was subjected to four hours of simulator driving without a break. The same subject received 5 mg/kg of tryptophan or a placebo at least one week apart, and participated in the experiment.
# Blood sample was taken from the subjects according to the experimental schedule shown in Table 4 so as to measure concentrations of amino acids in their plasma.
smiles,measurement,setting,value
N[C@@H](Cc1c[nH]c2ccccc12)C(=O)O [tryptophan],concentration at 4 h,"male, human, plasma, oral, tryptophan group, 5 mg/kg tryptophan taken before loading, after four hours of simulator driving, healthy males",39 µM
same,concentration of tryptophan in plasma before fatigue loading,"tryptophan group (5 mg/kg tryptophan), blood sampled before intake and before four hours of simulator driving, healthy males",43 µM
same,change in concentration of tryptophan in plasma between before and after fatigue loading,"tryptophan group, 5 mg/kg before loading, four hours of simulator driving, placebo group showed a significant decrease",no significant decrease
